Laboratory results from article PMC2222791, “Induction of the oxidative catabolism of retinoid acid in MCF-7 cells” (British Journal of Cancer, 1997).
Where “and” joins values, the source holds several entries; their conditions need not be identical. Equal values may be shown once. Read-outs that look alike come from different tables or passages of the source. Starred links: 1 amine or outer side, 2 acyl side, 3 side chain; linkers in the order of their positions; H or OH if unused. Positions of bridges follow the written chain, without caps; N, C: chain ends. Non-standard residues stand in square brackets, D forms with d. Residues, ends and D or L forms follow the SMILES beside them. Chains are numbered I, II in the order given. Actinocin(9to1) = Cc1c2oc3c(C)ccc(C(=O)[*:1])c3nc-2c(C(=O)[*:2])c(N)c1=O; NMeV = CN[C@H](C(=O)O)C(C)C; Sar = CNCC(=O)O

Tests used:
RARs = system: RARs; design: method as in Duell et al, 1992; conditions: ref Duell et al, 1992; cited from earlier work
BA-HAN-IC = BA-HAN-IC cells; ref Ramp et al, 1994; cited from earlier work
[1] = system: all-trans-RA catabolism in MCF-7 cells; test: Inhibition of induced all-trans-RA catabolism in MCF-7 cells; format: cell-based, human; conditions: for IC50: MCF-7 cells preincubated 24 h with 10^-6 M all-trans-RA, 10^-7 M [3H]all-trans-RA as substrate, mean ± s.d., three experiments in duplicate; for Activity in inhibiting all-trans-RA catabolism, times less than all-trans-RA: relative to all-trans-RA, from IC50 values of Table 2; for Inhibition of induced all-trans-RA catabolism, in words: induced MCF-7 cells, 10^-7 M [3H]all-trans-RA, CH55 up to 10 μM
MCF-7 cells [2] = system: MCF-7 cells
MCF-7 cells [3] = test: Viability of MCF-7 cells after preincubation (trypan blue); conditions: 24 h preincubation, varying concentrations, results not shown
HL-60 leukaemia cells = system: HL-60 leukaemia cells; design: method as in Bollag and Holdener, 1992; Matsushima et al, 1992; conditions: ref Bollag and Holdener, 1992, Matsushima et al; cited from earlier work
[4] = system: RbTE cells and HL-60 leukaemia cells; design: method as in Jetten et al, 1987; conditions: ref Jetten et al, 1987; cited from earlier work
[5] = system: all-trans-RA catabolism in MCF-7 cells; test: Induction of all-trans-RA catabolism in MCF-7 cells by preincubation with retinoids (microcolumn assay); conditions: for RA catabolism (% of control): 24 h preincubation
[6] = system: rat Dunning R3327G tumour homogenates; conditions: cited from earlier work
[7] = system: all-trans-RA catabolism in MCF-7 cells; test: Enzyme characteristics of induced all-trans-RA catabolism (Michaelis-Menten, Lineweaver-Burk); format: cell-based, human; conditions: MCF-7 cells preincubated 24 h with 10^-6 M all-trans-RA; substrate 5 x 10^-9 to 10^-6 M [3H]all-trans-RA; overall formation of polar metabolites; read-out: Estimated Km value of induced all-trans-RA catabolism
Experimental: (§1) British Journal of Cancer (1997) 75(8), 1098-1104 ? […] Quantification was performed by optical densitometric scanning. […] Data are shown as mean ? s.d.

rat liver homogenates = conditions: cited from earlier work
hamster liver microsomes = conditions: read-out: Km value of all-trans-RA catabolism, cited from earlier work
CRABP-II mRNA = test: Northern blotting for CRABP mRNA in MCF-7 cells; format: cell-based, human
Experimental: as §1

[8] = system: F9 embryonal carcinoma cells; design: method as in Willams and Napoli, 1985; conditions: ref Willams and Napoli, 1985; cited from earlier work
[9] = read-out: Km value of all-trans-RA catabolism
[10] = ref Krekels et al, 1995, read-out: IC50 value for inhibition of all-trans-RA catabolism

Q: For `CC1=C(/C=C/C(C)=C/C=C/C(C)=C/C(=O)O)C(C)(C)CCC1O` (centres unmarked) [4-hydroxy-RA], which “Potency in stimulating gene transcription, times less potent than RA” value (RARs) is on record?
A: The value was 2-10 times.

Q: Which “Differentiation-inducing activity relative to all-trans-RA” value (BA-HAN-IC) does the source give for `CC1=C(/C=C/C(C)=C/C=C/C(C)=C/C(=O)O)C(C)(C)CCC1O` (stereo not drawn) [4-hydroxy-all-trans-RA] here?
A: Its value is “significantly weaker”.

Q: With `CC1=C(/C=C/C(C)=C/C=C/C(C)=C\C(=O)O)C(C)(C)CCC1=O` [4-keto-13-cis-RA, 4-keto-13-cis-retinoic acid] as the compound, how does the IC50 [1] read?
A: Its IC50 is 6600 nM.

Q: And the “Activity in inhibiting all-trans-RA catabolism, times less than all-trans-RA” value [1]?
A: The value was “about 50 times”.

Q: What about the “Viability of the cells after preincubation” value (“Viability of the cells” below) (MCF-7 cells [2]) of the same compound?
A: Its value is “did not decrease viability”.

Q: Which “Potency in stimulating gene transcription, times less potent than RA” value (RARs) does the source give for `CC1=C(/C=C/C(C)=C/C=C/C(C)=C/C(=O)O)C(C)(C)CCC1=O` [4-keto-RA] here?
A: Its value is 2-10 times.

Q: Which “Differentiation-inducing activity relative to all-trans-RA” value (BA-HAN-IC) does the source give for `CC1=C(/C=C/C(C)=C/C=C/C(C)=C/C(=O)O)C(C)(C)CCC1=O` [4-keto-all-trans-RA, 4-Keto-all-trans-retinoic acid] here?
A: The value was “significantly weaker”.

Q: What about the IC50 [1] of the same compound?
A: Its IC50 is 370 nM.

Q: And the “Inhibition of induced all-trans-RA catabolism, in words” value (“Inhibition” below) [1]?
A: Its value is “activity similar to that of all-trans-RA”.

Q: And the “Viability of the cells” value (MCF-7 cells [2])?
A: The value was “did not decrease viability”.

Q: Which “Viability of the cells” value (MCF-7 cells [3]) does the source give for `CC1=C(/C=C/C(C)=C\C=C\C(C)=C\C(=O)O)C(C)(C)CCC1` [9-cis-RA, 9-cis-retinoic acid] here?
A: Its value is “did not decrease viability”.

Q: And the “Potency in inducing differentiation relative to all-trans-RA” value (HL-60 leukaemia cells)?
A: The value was “equipotent to 10-fold as active”.

Q: What about the IC50 ([1]; Homo sapiens, MCF7) of the same compound?
A: Its IC50 is 1890 nM.

Q: And the “Activity in inhibiting all-trans-RA catabolism, times less than all-trans-RA” value [1]?
A: The value was “about 15 times”.

Q: What does the source list for `CC1=C(/C=C/C(C)=C/C=C/C(C)=C\C(=O)O)C(C)(C)CCC1` [13-cis-RA, 13-cis-retinoic acid]?
A: Viability of the cells after preincubation (MCF-7 cells [3]): did not decrease viability; Potency in inducing differentiation relative to all-trans-RA (HL-60 leukaemia cells): equipotent; Activity in inhibiting all-trans-RA catabolism, times less than all-trans-RA [1]: 5 times

Q: What does the source list for `CC(C)(C)c1cc(C(=O)/C=C/c2ccc(C(=O)O)cc2)cc(C(C)(C)C)c1` [CH55, (E)-4-[3-(3,5-di-tert-butylphenyl)-3-oxo-l-propenyl]benzoic acid]?
A: Viability of the cells after preincubation (MCF-7 cells [3]): did not decrease viability; Biological activity, times higher than that of all-trans-RA [4]: 20-25 times; IC50 [1]: > 10000 nM; Inhibition of induced all-trans-RA catabolism, in words [1]: did not inhibit

Q: For `Cc1c2oc3c(C)ccc(C(=O)N[C@@H]4C(=O)N[C@H](C(C)C)C(=O)N5CCC[C@H]5C(=O)N(C)CC(=O)N(C)[C@@H](C(C)C)C(=O)O[C@@H]4C)c3nc-2c(C(=O)N[C@@H]2C(=O)N[C@H](C(C)C)C(=O)N3CCC[C@H]3C(=O)N(C)CC(=O)N(C)[C@@H](C(C)C)C(=O)O[C@@H]2C)c(N)c1=O` [actinomycin D] (I: T[dV]P[Sar][NMeV] / II: T[dV]P[Sar][NMeV]; ester I:1-I:C, II:1-II:C; linker I:N-II:N via Actinocin(9to1)), which “RA catabolism (% of control)” value ([5]; actinomycin D 0.1 μg ml-1 with 10^-6 M all-trans-RA) is on record?
A: Its value is 14.3 % of control.

Q: And the “RA catabolism (% of control)” value ([5]; actinomycin D 1 μg ml-1 with 10^-6 M all-trans-RA)?
A: The value was 11.7 % of control.

Q: For `CC1=C(/C=C/C(C)=C/C=C/C(C)=C/C(=O)O)C(C)(C)CCC1` [all-trans-RA, All-trans-retinoic acid], which “Viability of the cells” value (MCF-7 cells [3]) is on record?
A: Its value is “did not decrease viability”.

Q: And the Km [6, 9]?
A: Its Km is 1700 nM.

Q: And the “Preincubation period to maximal induction” value ([5]; 10^-6 M all-trans-RA)?
A: The value was 16 h and 16 to 24 h.

Q: And the “Time for induction to decrease to the constitutive level after wash-out” value ([5]; 16 h induction with 10^-6 M all-trans-RA, then wash-out)?
A: Its value is no more than 24 h.

Q: And the “Onset of induction detectable” value ([5]; preincubation with all-trans-RA)?
A: Its value is no more than 60 min.

Q: And the Km [7]?
A: The Km was 330 nM.

Q: And the Km (rat liver homogenates; [9])?
A: Its Km is 4.3 µM.

Q: What about the Km (hamster liver microsomes; ref Roberts et al (1980)) of the same compound?
A: The Km was 1.1 µM.

Q: And the Km (hamster liver microsomes; ref Van Wauwe et al (1988))?
A: The Km was 12.5 µM.

Q: What about the “Reduction in CRABP-II mRNA” value (CRABP-II mRNA; 10^-7 M all-trans-RA, 24 h) of the same compound?
A: Its value is 20%.

Q: What about the “Expression of CRABP-I mRNA after treatment” value (CRABP-II mRNA; CRABP-I mRNA, results not shown) of the same compound?
A: Its value is “remained low”.

Q: And the “Inhibition” value [1]?
A: Its value is “most active compound”.

Q: Which IC50 [6, 10] does the source give for `Clc1cccc(C(c2ccc3[nH]cnc3c2)n2ccnc2)c1.Clc1cccc(C(c2ccc3[nH]cnc3c2)n2ccnc2)c1.O=C(O)/C=C/C(=O)O.O=C(O)/C=C/C(=O)O.O=C(O)/C=C/C(=O)O` (stereo not drawn) [liarozole-fumarate, 5-[3(chlorophenyl)(lH-imidazole-l-yl)methyl]-IH-benzimidazole (E)-2-butenedioate(2:3)] here?
A: Its IC50 is 260 nM.

Q: What about the IC50 (rat liver homogenates; [10]) of the same compound?
A: The IC50 was 140 nM.

Q: And the “Inhibition” value [1]?
A: The value was “potency similar to that of all-trans-RA”.

Q: With `CC1=C(/C=C/C(C)=C/C=C/C(C)=C/CO)C(C)(C)CCC1` [retinol, Retinol] as the compound, how does the “Viability of the cells” value (MCF-7 cells [3]) read?
A: The value was “did not decrease viability”.

Q: What about the “Activity in inducing differentiation relative to all-trans-RA” value [8] of the same compound?
A: The value was “approximately 10%”.

Q: What about the “Inhibition” value [1] of the same compound?
A: Its value is “least active natural compound”.
